Source: paper doi:10.1101/2025.01.23.634444v1, “The histidine kinase VraS orchestrates the cell-wall stress response in Staphylococcus aureus via its direct interaction with glycopeptides and β-lactams” (biorxiv, 2025)

Legend:
VraS (VraS-H6x) [1] = target: T1, VraS (VraS-H6x) (Staphylococcus aureus, UniProt A0A0H2XJC3); assay: saturation transfer difference NMR; format: binding; set-up: full-length, C-terminal His6 tag kept, codon-optimised synthetic gene, pET24a(+), expressed in E. coli BL21 Star (DE3) membranes, purified in DDM, reconstituted in liposomes; 347 residues, 40,867 Da tagged; dimer in DDM; settings: 20 µM VraS, 400 µM ampicillin, sodium phosphate pH 7.4, 280 mM NaCl, 6 mM KCl, 0.01% DDM, 10% D2O
VraS (VraS-H6x) [2] = target: T1, VraS (VraS-H6x); assay: biochemical

Row | IC50 (VraS (VraS-H6x) [2]) | SMILES | STD (VraS (VraS-H6x) [1])
1 |  | CC1(C)S[C@@H]2[C@H](NC(=O)[C@H](N)c3ccccc3)C(=O)N2[C@H]1C(=O)O [ampicillin] | the difference spectrum demonstrated the interaction of ampicillin with VraS
2 | 1.6 ± 0.3 mM | CN[C@H](CC(C)C)C(=O)N[C@H]1C(=O)N[C@@H](CC(N)=O)C(=O)N[C@H]2C(=O)N[C@H]3C(=O)N[C@H](C(=O)N[C@H](C(=O)O)c4cc(O)cc(O)c4-c4cc3ccc4O)[C@H](O)c3ccc(c(Cl)c3)Oc3cc2cc(c3O[C@@H]2O[C@H](CO)[C@@H](O)[C@H](O)[C@H]2O[C@H]2C[C@](C)(N)[C@H](O)[C@H](C)O2)Oc2ccc(cc2Cl)[C@H]1O [vancomycin] | 
